Assay results as given in PMC11930087, “Mobility of four structural regions drives isoform-specific properties of photoenzyme LPOR in plants” (The Journal of Biological Chemistry, 2025).

Key:
[1] = biological target: T1, PeaPOR (Lathyrus oleraceus, UniProt Q01289); experiment: […] K Pchlide fluorescence in darkness, F648/F635 ratio vs NADPH, hyperbolic fit; type: binding; conditions: lipid-free; 5 μM Pchlide, 15 μM LPOR, pH 7.1, room-temperature dark incubation; apparent parameter, exact value in supplement; read-out: KM^D
T1 construct: gene 3PCR; transit peptide removed; pET15b
T1 sequence (Q01289 65-399): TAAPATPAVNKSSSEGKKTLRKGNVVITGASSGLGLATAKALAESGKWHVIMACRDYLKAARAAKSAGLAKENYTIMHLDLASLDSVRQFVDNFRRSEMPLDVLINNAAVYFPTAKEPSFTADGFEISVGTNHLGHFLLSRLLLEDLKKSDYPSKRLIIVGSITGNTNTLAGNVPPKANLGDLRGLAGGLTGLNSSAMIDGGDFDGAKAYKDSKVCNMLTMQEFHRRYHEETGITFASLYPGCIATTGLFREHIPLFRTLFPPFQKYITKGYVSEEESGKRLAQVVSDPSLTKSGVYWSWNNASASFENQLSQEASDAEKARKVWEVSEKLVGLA

[2] = biological target: T2, AtPORB (Arabidopsis thaliana, UniProt P21218); conditions: 400 uM OPT lipids; substrate; read-out: illuminated, 400 uM OPT, KM^L
T2 construct: gene PORB
T2 sequence (P21218 67-401): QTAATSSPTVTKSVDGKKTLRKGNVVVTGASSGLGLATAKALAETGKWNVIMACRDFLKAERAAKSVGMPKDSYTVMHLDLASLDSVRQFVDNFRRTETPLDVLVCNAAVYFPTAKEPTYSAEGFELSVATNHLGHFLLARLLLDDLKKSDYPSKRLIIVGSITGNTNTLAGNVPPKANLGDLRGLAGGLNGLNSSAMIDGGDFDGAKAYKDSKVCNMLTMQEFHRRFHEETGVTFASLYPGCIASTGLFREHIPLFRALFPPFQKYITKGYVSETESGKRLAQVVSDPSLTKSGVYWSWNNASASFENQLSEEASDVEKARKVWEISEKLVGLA
Text: All samples were thawed in darkness, illuminated for 20 s to initiate the reaction, and then frozen again and remeasured. […] These plots also resembled saturation curves, to which a hyperbolic function similar to the modified Michaelis–Menten equation could be fitted (Figs. 3C, S5, Materials and Methods).

NC(=O)C1=CN([C@@H]2O[C@H](COP(=O)(O)OP(=O)(O)OC[C@H]3O[C@@H](n4cnc5c(N)ncnc54)[C@H](OP(=O)(O)O)[C@@H]3O)[C@@H](O)[C@H]2O)C=CC1 [NADPH] was tested, and the Kd [1] was < 10 µM and the Km [2] was 1.3 µM.
